Assay results reported in patent US20250101063A1, “POLYPEPTIDE COMPOUND AND USE THEREOF IN TREATMENT OF ENTERITIS” (Sichuan Gooddoctor Panxi Pharmaceutical Co., Ltd., priority 2022, published 2025).
Entries after “also recorded” stand apart in the source; their conditions may differ.

Experiments:
[1] = tested on: zebrafish model of intestinal mucosal injury; assay: Efficacy in relieving colitis: intestinal lumen area in TNBS-treated zebrafish; assay type: in vivo; settings: for Intestinal lumen area (pixels, mean ± SE): 2 days after TNBS, n = 10
Protocol: Experimental animals: Wild-type AB strain zebrafishes, bred by natural pair mating. Zebrafishes aged 3 days post fertilization (3 dpf). Zebrafishes were kept in fish farming water at 28° C. (water quality: 200 mg of instant sea salt in each 1L of reverse osmosis water, with the conductivity of 450-550 μS/cm; pH of 6.5-8.5; and hardness of 50-100 mg/L CaCO3), the experimental animal use license number is: SYXK (Zhe) 2012-0171, and the breeding management met the requirements of the international AAALAC certification (certification number: 001458).
(1) Grouping: Polypeptide group: prepared into a stock solution of 20.0 mg/mL with ultrapure water and stored at −20° C.
Positive control group: prednisone, as white powder, with batch number C10016501, Shanghai Macklin Biochemical Technology Co., Ltd., stored at 4° C.; prepared into a 15.0 mg/mL stock solution with DMSO, and stored in aliquots at −20° C.
Normal control group and model control group.
(2) Experimental method: 3 dpf wild-type AB strain zebrafishes were randomly selected and placed in a 6-well plate, with 30 zebrafishes in each well (experimental group). Except for the normal control group, all other experimental groups were given TNBS in water to establish the zebrafish model of intestinal mucosal injury. After 2 days of treatment at 28° C., TNBS was removed, and polypeptide compound in water (at concentrations shown in Table 4) was given respectively, and for the positive control, prednisone was 15.0 μg/mL. A normal control group (healthy group) and a model control group (intestinal mucosal injury group) were set up at the same time. The capacity of each well (experimental group) was 3 mL. After 2 days of treatment at 28° C., 10 zebrafishes were randomly selected from each experimental group and photographed under a dissecting microscope. NIS-Elements D 3.20 advanced image processing software was used to analyze and collect data, and the intestinal lumen area of the zebrafish was analyzed. The statistical analysis results of this indicator were used to evaluate the efficacy of the samples in relieving colitis. The statistics results were expressed as mean±SE. SPSS26.0 software was used for statistical analysis, and p<0.05 indicates statistically significant difference.
The concentration gradient of the test substances set in this experimental system was 250 μg/mL, 500 μg/mL, and 1000 μg/mL. […] When the concentration of the test substance was further increased for intervention, the death phenomenon of zebrafishes was found in the group; therefore, in the subsequent rounds of activity evaluation, each test polypeptide compound was uniformly administered at 1000 μg/mL for intervention.

[2] = tested on: TNBS-induced model of acute inflammatory bowel disease (UC) in SD rat; assay: TNBS-induced model of acute inflammatory bowel disease (UC) in SD rat; assay type: in vivo; settings: for Body weight, Grouping day (D 0, g): D 0, before treatment; for Body weight, Grouping day (D 0, g) / DAI score, Experimental day 1 (D 1, point) / DAI score, Experimental day 3 (D 3, point) / Body weight, Experimental day 5 (D 5, g): enema once a day; for Body weight, Grouping day (D 0, g) / DAI score AUC(0-14 d) (D 0-D 14) / Weight change range (D 0-D 14, %) / DAI score, Experimental day 1 (D 1, point) / DAI score, Experimental day 3 (D 3, point) / Body weight, Experimental day 5 (D 5, g) / Body weight, Experimental endpoint (D 14, g) / DAI score, Experimental endpoint (D 14, point) / Colon length (cm) / Colon ulcer and inflammation score (point) / Colon ulcer area (cm^2) / Colon weight / Colon weight/length ratio (100* g/cm) / Colonic adhesion score (point): mean ± SD
Text: In this experiment, a rat model of ulcerative colitis was established by administering trinitrobenzene sulfonic acid (TNBS) to laboratory animal male SD rats for a single enema intervention. Acute colitis in rats induced by trinitrobenzene sulfonic acid (TNBS) is an immune response induced by cytokines secreted by Th1 type cells. […] This model is simple to establish and has good reproducibility. It is an experimental animal model widely used in evaluating drugs for the treatment of inflammatory bowel disease. […] During the experimental treatment period (D1-D14), the body weight and general clinical observation indicators (including but not limited to food intake, water intake, activity level and defecation, etc.) of the animals in each experimental group were dynamically collected. At the same time, based on the relevant scoring standards for the disease activity index of ulcerative colitis, the reactivity such as the weight loss degree, stool morphology and trait, and bloody stool of the animals in each experimental group after TNBS induction were scored, and the disease activity index (DAI) of ulcerative colitis was calculated, once a day for 14 consecutive days. At the end point of the experiment, colon tissues of animals in each experimental group were collected, and the length and weight of the colon were measured and then the non-autopsy images were collected. Then the colon was cut open along the intestinal wall longitudinally and autopsy images were collected. Based on the “Criteria for Scoring Gross Morphological Manifestations of the Colon”, the gross damage with respect to colon adhesions, colon ulcers and inflammation of animals in each experimental group was observed and scored. Ulcer images were collected under a stereomicroscope and the area of colon ulcer foci was calculated, followed by routine fixation.

[3] = high dose group (compound 1: 6.0 mg/kg; compound 6: 2.8 mg/kg)
[4] = low dose group (compound 1: 3.0 mg/kg; compound 6: 1.4 mg/kg)
[5] = high dose group (compound 1: 6.0 mg/kg; compound 6: 2.8 mg/kg), enema once a day 14 days
[6] = low dose group (compound 1: 3.0 mg/kg; compound 6: 1.4 mg/kg), enema once a day 14 days
[7] = experimental endpoint, high dose group (compound 1: 6.0 mg/kg; compound 6: 2.8 mg/kg), enema once a day 14 days
[8] = experimental endpoint, low dose group (compound 1: 3.0 mg/kg; compound 6: 1.4 mg/kg), enema once a day 14 days
[9] = set treatment regimen, enema once a day 14 days, vs model control group
[10] = set treatment regimen, experimental endpoint, vs model control group

Substance: H-KEPVPQAKPRKVAAQ-OH [Compound 1]
- Intestinal lumen area (pixels, mean ± SE) ([1]; 250 μg/mL in water): 39333 ± 2095 pixels
- Intestinal lumen area (pixels, mean ± SE) ([1]; 500 μg/mL in water): 26497 ± 1245 pixels
- Intestinal lumen area (pixels, mean ± SE) ([1]; 1000 μg/mL in water): 26174 ± 1898 pixels
- Activity in relieving intestinal lumen dilatation ([1]; 1000 μg/mL, significance vs model control group of the same batch): *** (*** p < 0.001)
- Intestinal lumen area compared with the model control group (in words) ([1]; 250, 500, 1000 μg/mL, Table 4): significant statistical differences compared with the model control group
- Body weight, Grouping day (D 0, g) [2, 3]: 279.99 ± 10.57 g
- Body weight, Grouping day (D 0, g) [2, 4]: 274.40 ± 9.10 g
- DAI score AUC(0-14 d) (D 0-D 14) [2, 5]: 30.65 ± 2.93^####+++
- Weight change range (D 0-D 14, %) [2, 5]: 6.97 ± 4.73 %
- DAI score AUC(0-14 d) (D 0-D 14) [2, 6]: 37.65 ± 3.60
- Weight change range (D 0-D 14, %) [2, 6]: 7.96 ± 7.32 %
- DAI score, Experimental day 1 (D 1, point) [2, 3]: 3.9 ± 0.6 point
- DAI score, Experimental day 1 (D 1, point) [2, 4]: 3.5 ± 1.3 point
- DAI score, Experimental day 3 (D 3, point) [2, 3]: 4.3 ± 1.8 point
- DAI score, Experimental day 3 (D 3, point) [2, 4]: 4.9 ± 1.6 point
- Body weight, Experimental day 5 (D 5, g) [2, 3]: 263.90 ± 15.38 g
- Body weight, Experimental day 5 (D 5, g) [2, 4]: 251.65 ± 18.30 g
- Body weight, Experimental endpoint (D 14, g) [2, 5]: 299.37 ± 14.64 g
- DAI score, Experimental endpoint (D 14, point) [2, 5]: 0.1 ± 0.3 point
- Body weight, Experimental endpoint (D 14, g) [2, 6]: 296.07 ± 19.58 g
- DAI score, Experimental endpoint (D 14, point) [2, 6]: 0.5 ± 0.7 point
- Colon length (cm) [2, 7]: 16.55 ± 1.67 cm
- Colon ulcer and inflammation score (point) [2, 7]: 1.40 ± 0.84^####++ point
- Colon ulcer area (cm^2) [2, 7]: 2.15 ± 0.74^###+ cm^2
- Colon weight [2, 7]: 2.20 ± 0.28 g
- Colon weight/length ratio (100* g/cm) [2, 7]: 13.37 ± 1.93^####+ 100* g/cm
- Colonic adhesion score (point) [2, 7]: 0.60 ± 0.52 point
- Colon length (cm) [2, 8]: 15.34 ± 1.99 cm
- Colon ulcer and inflammation score (point) [2, 8]: 2.50 ± 0.85 point
- Colon ulcer area (cm^2) [2, 8]: 3.77 ± 1.91^# cm^2
- Colon weight [2, 8]: 2.48 ± 0.46 g
- Colon weight/length ratio (100* g/cm) [2, 8]: 16.40 ± 3.29^### 100* g/cm
- Colonic adhesion score (point) [2, 8]: 1.10 ± 0.57 point
- Overall therapeutic effect in the rat model of ulcerative colitis (in words) ([2]; set treatment regimen): significant therapeutic effects
- Effect on disease progression of ulcerative colitis / DAI scores (in words) [2, 9]: significant improvement effect on the disease progression of ulcerative colitis
- Effect on weight gain inhibition / weight loss response of model animals (in words) [2, 9]: significant effect of improving the weight gain inhibition; also recorded: significant improvement effect on the weight loss response
- Effect on colon atrophy process / colon weight/length ratio (in words) [2, 10]: colon weight/length ratio was significantly decreased
- Effect on gross colon injury status (colonic adhesion, ulcer and inflammation) and colon ulcer area (in words) [2, 10]: obvious therapeutic effects; also recorded: significant therapeutic effects on the gross damage manifestation of the colon
